Experimental data published in US10131652B2, “Pyrimidinyloxy benzene derivatives as herbicides” (E. I. DU PONT DE NEMOURS AND COMPANY, priority 2014, dated 2018).
Like-named read-outs stand apart in the source and are kept apart here.

How the values were obtained:
Assay in all cases: Test D pre-/postemergence plant response
Format in all cases: in vivo
[1] = tested on: blackgrass (Alopecurus myosuroides); conditions: Alopecurus myosuroides; for pest or weed control at 62 g/ha: 62 g ai/ha; for pest or weed control at 125 g/ha: 125 g ai/ha
Summary of the method: (§1)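 Plants are held in a greenhouse 13 to 15 days after spraying, then injury is rated by eye relative to controls on a 0 to 100 scale. Treatments are preemergence on freshly sown loam/sand pots or postemergence at 1- to 4-leaf stage in peat-based medium; surfactant-containing solvent formulation.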

[2] = tested on: ragweed (common ragweed, Ambrosia elatior); conditions: Ambrosia artemisiifolia; for pest or weed control at 16 g/ha: 16 g ai/ha; for pest or weed control at 31 g/ha: 31 g ai/ha; for pest or weed control at 62 g/ha: 62 g ai/ha; for pest or weed control at 125 g/ha: 125 g ai/ha
Summary of the method: as §1

[3] = tested on: large (Lg) crabgrass (Digitaria sanguinalis); conditions: Digitaria sanguinalis; for pest or weed control at 16 g/ha: 16 g ai/ha; for pest or weed control at 31 g/ha: 31 g ai/ha; for pest or weed control at 62 g/ha: 62 g ai/ha; for pest or weed control at 125 g/ha: 125 g ai/ha
Summary of the method: as §1

[4] = tested on: yellow nutsedge (Cyperus esculentus); conditions: Cyperus; for pest or weed control at 16 g/ha: 16 g ai/ha; for pest or weed control at 31 g/ha: 31 g ai/ha; for pest or weed control at 62 g/ha: 62 g ai/ha; for pest or weed control at 125 g/ha: 125 g ai/ha
Summary of the method: as §1

[5] = tested on: morningglory (Ipomoea coccinea); conditions: Ipomoea; for pest or weed control at 16 g/ha: 16 g ai/ha; for pest or weed control at 31 g/ha: 31 g ai/ha; for pest or weed control at 62 g/ha: 62 g ai/ha; for pest or weed control at 125 g/ha: 125 g ai/ha
Summary of the method: as §1

[6] = tested on: barnyardgrass (Echinochloa crus-galli); conditions: Echinochloa crus-galli; for pest or weed control at 16 g/ha: 16 g ai/ha; for pest or weed control at 16 g/ha / pest or weed control at 31 g/ha: scale 0 to 100 (0 no effect, 100 complete control); for pest or weed control at 31 g/ha: 31 g ai/ha; for pest or weed control at 62 g/ha: 62 g ai/ha; for pest or weed control at 125 g/ha: 125 g ai/ha
Summary of the method: as §1

[7] = tested on: pigweed (Amaranthus retroflexus); conditions: Amaranthus retroflexus; for pest or weed control at 16 g/ha: 16 g ai/ha; for pest or weed control at 31 g/ha: 31 g ai/ha; for pest or weed control at 62 g/ha: 62 g ai/ha; for pest or weed control at 125 g/ha: 125 g ai/ha
Summary of the method: as §1

[8] = post-emergence, Postemergence, scale 0 to 100, 0 no effect, 100 complete control, read-out: Plant response rating, Blackgrass
[9] = post-emergence, Postemergence, scale 0 to 100 (0 no effect, 100 complete control), read-out: Ragweed plant response rating
[10] = post-emergence, Postemergence, scale 0 to 100, 0 no effect, 100 complete control, read-out: Plant response rating, Ragweed
[11] = pre-emergence, Preemergence, scale 0 to 100 (0 no effect, 100 complete control), read-out: Plant response rating, Ragweed
[12] = post-emergence, Postemergence, scale 0 to 100 (0 no effect, 100 complete control), read-out: Crabgrass, Large plant response rating
[13] = post-emergence, Postemergence, scale 0 to 100, 0 no effect, 100 complete control, read-out: Plant response rating, Crabgrass, Large
[14] = pre-emergence, Preemergence, scale 0 to 100 (0 no effect, 100 complete control), read-out: Plant response rating, Crabgrass, Large
[15] = post-emergence, Postemergence, scale 0 to 100 (0 no effect, 100 complete control), read-out: Nutsedge, Yellow plant response rating
[16] = post-emergence, Postemergence, scale 0 to 100, 0 no effect, 100 complete control, read-out: Plant response rating, Nutsedge, Yellow
[17] = pre-emergence, Preemergence, scale 0 to 100 (0 no effect, 100 complete control), read-out: Plant response rating, Nutsedge, Yellow
[18] = post-emergence, Postemergence, scale 0 to 100 (0 no effect, 100 complete control), read-out: Morningglory plant response rating
[19] = post-emergence, Postemergence, scale 0 to 100, 0 no effect, 100 complete control, read-out: Plant response rating, Morningglory
[20] = pre-emergence, Preemergence, scale 0 to 100 (0 no effect, 100 complete control), read-out: Plant response rating, Morningglory
[21] = post-emergence, Postemergence, read-out: Barnyardgrass plant response rating
[22] = post-emergence, Postemergence, scale 0 to 100, 0 no effect, 100 complete control, read-out: Plant response rating, Barnyardgrass
[23] = pre-emergence, Preemergence, read-out: Plant response rating (scale 0 to 100), Barnyardgrass
[24] = pre-emergence, Preemergence, read-out: Plant response rating, Barnyardgrass
[25] = post-emergence, Postemergence, scale 0 to 100 (0 no effect, 100 complete control), read-out: Pigweed plant response rating
[26] = post-emergence, Postemergence, scale 0 to 100, 0 no effect, 100 complete control, read-out: Plant response rating, Pigweed
[27] = pre-emergence, Preemergence, scale 0 to 100 (0 no effect, 100 complete control), read-out: Plant response rating, Pigweed

SMILES: FC(F)(F)c1cc(-c2ccccc2Oc2ncc(Cl)cn2)on1 [Compound 63, 5-chloro-2-[2-[3-(trifluoromethyl)-5-isoxazolyl]phenoxy]pyrimidine]
- pest or weed control at 62 g/ha [1, 8]: 20%
- pest or weed control at 125 g/ha [1, 8]: 25%
- pest or weed control at 125 g/ha ([1]; pre-emergence, Preemergence, read-out: Plant response rating (scale 0 to 100), Blackgrass): 90%
- pest or weed control at 16 g/ha ([1]; pre-emergence, Preemergence, 16 g ai/ha, scale 0 to 100 (0 no effect, 100 complete control), read-out: Plant response rating, Blackgrass): 30%
- pest or weed control at 31 g/ha ([1]; pre-emergence, Preemergence, 31 g ai/ha, scale 0 to 100 (0 no effect, 100 complete control), read-out: Plant response rating, Blackgrass): 85%
- pest or weed control at 62 g/ha ([1]; pre-emergence, Preemergence, scale 0 to 100 (0 no effect, 100 complete control), read-out: Plant response rating, Blackgrass): 90%
- pest or weed control at 16 g/ha [2, 9]: 10%
- pest or weed control at 31 g/ha [2, 9]: 40%
- pest or weed control at 62 g/ha [2, 10]: 55%
- pest or weed control at 125 g/ha [2, 10]: 55%
- pest or weed control at 125 g/ha ([2]; pre-emergence, Preemergence, read-out: Plant response rating (scale 0 to 100), Ragweed): 70%
- pest or weed control at 16 g/ha [2, 11]: 75%
- pest or weed control at 31 g/ha [2, 11]: 20%
- pest or weed control at 62 g/ha [2, 11]: 55%
- pest or weed control at 16 g/ha [3, 12]: 5%
- pest or weed control at 31 g/ha [3, 12]: 5%
- pest or weed control at 62 g/ha [3, 13]: 10%
- pest or weed control at 125 g/ha [3, 13]: 35%
- pest or weed control at 125 g/ha ([3]; pre-emergence, Preemergence, read-out: Plant response rating (scale 0 to 100), Crabgrass, Large): 100%
- pest or weed control at 16 g/ha [3, 14]: 65%
- pest or weed control at 31 g/ha [3, 14]: 98%
- pest or weed control at 62 g/ha [3, 14]: 98%
- pest or weed control at 16 g/ha [4, 15]: 0%
- pest or weed control at 31 g/ha [4, 15]: 0%
- pest or weed control at 62 g/ha [4, 16]: 5%
- pest or weed control at 125 g/ha [4, 16]: 5%
- pest or weed control at 125 g/ha ([4]; pre-emergence, Preemergence, read-out: Plant response rating (scale 0 to 100), Nutsedge, Yellow): 5%
- pest or weed control at 16 g/ha [4, 17]: 0%
- pest or weed control at 31 g/ha [4, 17]: 0%
- pest or weed control at 62 g/ha [4, 17]: 0%
- pest or weed control at 16 g/ha [5, 18]: 50%
- pest or weed control at 31 g/ha [5, 18]: 50%
- pest or weed control at 62 g/ha [5, 19]: 98%
- pest or weed control at 125 g/ha [5, 19]: 70%
- pest or weed control at 125 g/ha ([5]; pre-emergence, Preemergence, read-out: Plant response rating (scale 0 to 100), Morningglory): 60%
- pest or weed control at 16 g/ha [5, 20]: 0%
- pest or weed control at 31 g/ha [5, 20]: 0%
- pest or weed control at 62 g/ha [5, 20]: 25%
- pest or weed control at 16 g/ha [6, 21]: 5%
- pest or weed control at 31 g/ha [6, 21]: 10%
- pest or weed control at 62 g/ha [6, 22]: 10%
- pest or weed control at 125 g/ha [6, 22]: 10%
- pest or weed control at 62 g/ha [6, 23]: 98%
- pest or weed control at 125 g/ha [6, 23]: 100%
- pest or weed control at 16 g/ha [6, 24]: 30%
- pest or weed control at 31 g/ha [6, 24]: 65%
- pest or weed control at 16 g/ha [7, 25]: 85%
- pest or weed control at 31 g/ha [7, 25]: 85%
- pest or weed control at 62 g/ha [7, 26]: 90%
- pest or weed control at 125 g/ha [7, 26]: 95%
- pest or weed control at 125 g/ha ([7]; pre-emergence, Preemergence, read-out: Plant response rating (scale 0 to 100), Pigweed): 100%
- pest or weed control at 16 g/ha [7, 27]: 95%
- pest or weed control at 31 g/ha [7, 27]: 100%
- pest or weed control at 62 g/ha [7, 27]: 100%
